Experimental data reported in patent EP2573108A1, “Methods for identifying compounds capable of inhibiting degradation of PKM zeta” (SYGNIS Bioscience GmbH & Co KG, priority 2011, dated 2013).
Where two headings read alike, the source gives them in different places. Where a SMILES comes first, the peptide text is derived from it. The star is where a group is joined. Cbz = O=C(OCc1ccccc1)*

Legend:
PKM zeta [1] = assay: PKM zeta protein stability after translation block with cycloheximide (Western blot), SHSY-5Y cells; assay type: cell-based
Description: Western blotting. […] Lysates were frozen in liquid nitrogen and stored afterwards at -20°C. After syringing the lysate 5x, lysate was spun down at 13000 rpm at 4 °C for 10 min and the protein concentration of the supernate was determined (BCA-Test, Pierce). 1/5 volume of 5x sample-buffer (with β-Mercaptoethanol) was added and samples were denatured at 95 °C for 5 min. 50 µg of protein was run on a SDS-PAGE and proteins were transferred to nitrocellulose membranes using an iBlot™ Dry Blotting System (Invitrogen, Karlsruhe, Germany). […] For quantification of scanned autoradiographs Windows ImageJ (NIH, Bethesda, MD,USA) was used.

PKM zeta [2] = assay: PKM zeta protein stability after translation block with cycloheximide (Western blot), COS cells; assay type: cell-based; conditions: up to 48 h
Description: Electroporation of COS1 cells. COS1 cells were cultured in Dulbecco's modified eagle medium (DMEM) high glucose supplemented with 10% fetal calf serum (FCS). Cells were transfected with appropriate plasmids as indicated in the result section. For electroporation, COS-1 cells were harvested and resuspended in electroporation (EP)-buffer (50 mM K2HPO4, 20 mM CH3COOK, 20 mM KOH, pH 7.4) at a densitiy of 3.5x10^6 cells per transfection. After addition of 25 mM MgSO4, cells were mixed with 10 µg of plasmid-DNA (ratio of pulled down plasmid to co-expressed plasmid was 1:4; pure co-expression of two plasmids was performed in a ratio of 1:2) and transferred to an electroporation cuvette. Electroporation was performed in a Biorad Gene Pulsar II electroporator at 500 µF capacitance and 230 V, and cells were transferred into DMEM supplemented with 10% FCS and plated immediately. 48 h after transfection, cells were harvested for Co-IP. To perform western blot analysis, cells were stimulated 24 h after transfection for the indicated time points with cycloheximide and MG-132, respectively.
Western blotting. […] After syringing the lysate 5x, lysate was spun down at 13000 rpm at 4 °C for 10 min and the protein concentration of the supernate was determined (BCA-Test, Pierce). […] For quantification of scanned autoradiographs Windows ImageJ (NIH, Bethesda, MD,USA) was used.

PKM zeta [3] = conditions: PKM zeta expressed in COS cells, Fig. 4e
Description: (§1) Starting from aa 882, increasing 20aa stretches of KIBRA were deleted and constructs were tested for interaction with FLAG-tagged PKM zeta. […] PKM zeta-flag expression constructs were co-transfected with EGFP-fusion constructs containing the 956-975 PKM zeta binding motif. Amino acids from position 964 to 974 were mutated to Alanin. […] Increasing concentrations of the peptide were added to COS-lysates co-expressing KIBRA and FLAG- PKM zeta before pull-down with anti-FLAG beads. […] The C-terminal serine residues that can be phosphorylated by PKM zeta in vitro were mutated to alanine or glutamate. […] Neurons were infected with a KIBRA-EGFP fusion constructs.
(§2) Co-immunoprecipitation. 2d after electroporation, cells were washed twice with ice-cold 1xPBS, and lyesd (50 mM Tris/HCl pH 7.4, 150 mM NaCl, 0.5% NP40, 20 mM NaF, 2 mM EDTA, 2 mM EGTA, 2 mM orthovanadate, protease inhibitor cocktail) at 4°C. Lysate was incubated with anti-flag beads (Sigma) at 4 °C for 2h, 5µl of peptide solution was added as indicated. Protein was released by 1x SDS loading buffer (without reducing reagents) (95 °C for 5min).
(§3) In more detail, 2d after electroporation, COS cells were washed twice with ice-cold IxPBS, and protein extraction was carried out by lysis of cells with lysis-buffer (50 mM Tris/HCl pH 7.4, 150 mM NaCl, 0.5% NP40, 20 mM NaF, 2 mM EDTA, 2 mM EGTA, 2 mM orthovanadate, protease inhibitor cocktail) at 4 °C. After incubation for 20 min at 4°C, the lysate was spun down at 13500 rpm at 4 °C for 10 min. One part of the supernatant was kept for direct Western analysis (lysate).

KIBRA- PKM zeta complex = conditions: for displacement of KIBRA from a pre-formed complex with PKM zeta: COS lysates, Fig. 4f
Description: as §1, §2, §3

binding to PKM zeta (PKM zeta [3]; listed as aa 948-978)	binding to PKM zeta (PKM zeta [3]; listed as synthetic biotin-labeled peptide)	IC50 (KIBRA- PKM zeta complex; increasing concentrations of peptide added to COS-lysates co-expressing KIBRA and FLAG-PKM zeta before pull-down with anti-FLAG beads, estimated) [µM]	Compound	PKM zeta levels after CHX (PKM zeta [1])	PKM zeta levels after CHX (PKM zeta [2])	displacement of KIBRA from a pre-formed complex with PKM zeta (KIBRA- PKM zeta complex)	displacement of KIBRA from a pre-formed complex with PKM zeta (KIBRA- PKM zeta complex; listed as aa 948-978)
			CC(C)C[C@@H](C=O)NC(=O)[C@H](CC(C)C)NC(=O)[C@H](CC(C)C)NC(=O)OCc1ccccc1 [MG132] (Cbz-Leu-Leu-Leu-aldehyde)	prevented the time-dependent decrease in kinase levels	prevented the time-dependent decrease in kinase levels		
sufficient for binding	able to bind PKM zeta	~0.06	DSSTLSKKPPFVRNSLERRSVRMKRPSSVKS [synthetic peptide 948-978]			able to disrupt a preformed KIBRA- PKM zeta complex	able to displace KIBRA from a pre-formed complex with PKM zeta in a concentration-dependent manner
